This is an account of results in patent US5647363A, “Ambulatory clearance function monitor” (The General Hospital Corporation, priority 1994, dated 1997).

The conditions of data set [1]: human, in vivo; cited from earlier work.
Data set [2] is described as follows: Clearance rate constant of labelled tracer by external ambulatory renal monitor. Conditions: patient in intensive care unit, initial (moderately decreased renal function). It counts as in vivo. How it is done:
A more detailed description of an example of a renal function monitor follows, in which clearance of a radiolabelled injected substance was measured according to the detected radiation according to the invention. The performance of the apparatus was tested by comparison with results obtained using standard techniques.
Data collection was performed using a battery-operated, pocket-size lightweight data logger having 32K total RAM (Tattletale, Model V, Onset Computer Corp., N. Falmouth, Mass.). The detector was a 16 mm diameter×2 mm thick cadmium-telluride (Cd-Te) detector (Radiation Monitoring Devices, Watertown, Mass.) connected to a preamplifier and a lower level discriminator. […]
The usual diet was not altered. Weight and height were measured soon after arrival at the treatment facility. […]
To determine the value of the invention for monitoring of renal function, two patients at risk of ARF with serum creatinine ≥2 mg/dl were monitored before, during and after an angiographic procedure. […] The rate constant, as measured according to the invention, decreased in this patient from 2.85×10^-3 min^-1 to 0.2×10^-3 min^-1; and the serum creatinine in this patient increased from 2.4 to 2.8 mg/dl over the succeeding 12 hours.
The rate of clearance of ^99m Tc-DTPA was also monitored in a patient in an intensive care unit. […]

SMILES strings stand for the structures.

Regarding `O=C([O-])CN(CCN(CC(=O)[O-])CC(=O)[O-])CCN(CC(=O)[O-])CC(=O)[O-].[99Tc+4]` [^99m Tc-DTPA], in data set [1], the “rate constant (Normal)” value is 0.0065 min⁻¹. Moreover, the rate constant in data set [2] is 0.0035 min⁻¹.
